In PubChem BioAssay (NCI) one finds GI50 and TGI data, which are given here for 12 molecules.

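96-well plates; 48 h exposure; 5 concentrations. Endpoints by linear interpolation between flanking doses. Not reached: highest tested concentration assigned. GI50 marks 50% less growth. Definition used: TGI = concentration required for complete inhibition of growth.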

Test in all cases: DTP human tumour cell line panel, 48 h
Assay [1] deals with A549 NSCLC.
Assay [2] deals with ACHN renal.
Assay [3] relates to CAKI-1 renal.
Assay [4] relates to HL-60(TB) leukemia.
Assay [5] concerns IGROV1 ovarian.
Assay [6] deals with NCI-H522 lung.
In assay [7] the test system is SF-295 CNS.
Assay [8] has as its system TK-10 renal.
For assay [9], the system named is U251 CNS.
Assay [10] deals with EKVX NSCLC.

Regarding `O=C(N/N=C/c1cc2ccccc2c2ccccc12)c1cc(O)c(O)c(O)c1`, the GI50 in assay [1] was 12.7 µM; in [2], 3.25 µM; in [3] it was 3.72 µM; in assay [4] it was 3.54 µM; in assay [5], 4.14 µM; in assay [6] it was 2.06 µM. Also, the results for the GI50 in assay [7], in [8] and in assay [9] were 14.9 µM, 4.48 µM and 2.96 µM, respectively. Also, the TGI in assay [1] worked out at 39.2 µM; in assay [2], 12.6 µM; in assay [3], 19.1 µM; in [4], 15.2 µM; in assay [5], 20.5 µM; in [6], 5.64 µM. In addition, the TGI was 32.1 µM in assay [7], 30.7 µM in assay [8] and 14 µM in assay [9].
On to `O=C(O)[C@@H]1C[C@@H](O)CN1`, for which the TGI in assay [1], in assay [2], in assay [3], in assay [10], in assay [4] and in [5] was above 100 µM in each case. For the same molecule, the TGI in assay [7], in [8] and in [9] was above 100 µM throughout.
As to `C=CC1=C(C)C2=NC1=CC1=NC(=C(CC)/C1=C/O)C=C1C=C3C(=O)C(C(=O)OC)C(=C4NC(=C2)C(C)C4CCC(=O)OC/C=C(\C)CCCC(C)CCCC(C)CCCC(C)C)C3=N1` (stereo not given) (tested in a mixture with another compound), the TGI is above 100 µM in assay [1]; above 100 µM in assay [2]; above 100 µM in [3]; above 100 µM in assay [10]; above 100 µM in assay [5]; 73 µM in assay [6]. Moreover, the TGI in [7], in [8] and in assay [9] was above 100 µM throughout.
With `N#Cc1cccc(Nc2nccc(-c3cnn4ncccc34)n2)c1`, the GI50 in [1] is 0.00729 µM; in [2] it was 0.00487 µM; in assay [3], 0.00729 µM; in [4], 0.00363 µM; in assay [5], 0.00937 µM; in [6] it was 0.00752 µM. In addition, the values for the 50% growth inhibitory concentration (GI50) in assay [7], in assay [8] and in assay [9] were 0.00487 µM, 0.00603 µM and 0.00552 µM, respectively. Besides, the TGI in [1] is above 25 µM; in [2], above 25 µM; in assay [3] it was 1.17 µM; in assay [4] it was below 0.0129 µM; in assay [5], above 11.6 µM; in [6] it was 0.0394 µM. Besides, the TGI is 0.0223 µM in assay [7], 0.0172 µM in [8] and above 25 µM in [9].
On to `COc1cc(C2C(C(=O)O)=C(C)Oc3cc4c(cc32)OCO4)cc(OC)c1OC` (stereo not given), for which the TGI in [1] is above 100 µM; in assay [2], above 100 µM; in assay [3], above 100 µM; in assay [10] it was above 100 µM; in [4], 50.8 µM; in assay [5] it was above 100 µM. Further, the values for the total growth inhibition concentration (TGI) in [7], in assay [8] and in assay [9] were 59.5 µM, above 100 µM and above 100 µM, respectively.
As to `Nc1nc(N)c(-c2ccccc2)c(C(=O)Nc2ccc(Cl)c(Cl)c2)n1`, the TGI in assay [1], in assay [2], in assay [3], in assay [10], in assay [4] and in assay [5] was above 100 µM throughout. The TGI in assay [7], in assay [8] and in [9] was above 100 µM throughout.
As to `COc1cc2c(cc1OC)-c1c(cc(OC)c(OC)c1OC)C2=O`, the TGI in assay [1], in [2], in [10], in [4], in assay [5] and in [6] was above 100 µM each time. Also, the TGI in [7], in assay [8] and in assay [9] was above 100 µM throughout.
Turning to `N#Cc1c(NC(=O)CCC(=O)O)ccc2ccccc12`, the TGI in assay [1], in assay [2], in assay [3], in [10], in [5] and in assay [6] was above 100 µM in each case. In addition, the TGI in assay [7], in [8] and in assay [9] was above 100 µM each time.
As for `COC(=O)/C(=C/N1CCN(C(=O)c2ccco2)C1=S)C(C)=O`, the GI50 in [1] is 19.3 µM; in assay [2], 4.05 µM; in assay [3] it was 2.82 µM; in assay [10] it was 2.64 µM; in assay [4], 7.47 µM; in assay [5] it was 10.4 µM. Also, the GI50 in [7] is 18.6 µM; in [8], 3.54 µM; in assay [9], 5.53 µM. Also, the TGI is 39.7 µM in assay [1]; 17.8 µM in [2]; 8.52 µM in assay [3]; 9.89 µM in [10]; 71.5 µM in assay [4]; 36 µM in [5]. For the same molecule, the TGI is 83.8 µM in assay [7], 14.9 µM in assay [8] and 23.1 µM in assay [9].
Consider `O=C(C#Cc1c[nH]c(=O)[nH]c1=O)c1ccccc1`, for which the TGI in [1] stood at 64.1 µM; in [2] it was 29.6 µM; in [3], 32.3 µM; in assay [10], 24.9 µM; in assay [4] it was 14.3 µM; in assay [5] it was 32.5 µM. In addition, the results for the TGI in assay [7], in assay [8] and in [9] were above 100 µM, 26.7 µM and 26.9 µM, respectively.
In the case of `Cc1ccccc1NC(=O)C(=O)Cc1nc2ccccc2s1`, the TGI in assay [1], in assay [2], in [3], in assay [4], in [5] and in [6] was above 100 µM throughout. Moreover, the TGI in assay [7], in assay [8] and in [9] was above 100 µM in each case.
Take `O=C(O)/C(O)=C1/C=C(c2ccccc2)c2ccccc21`: the concentration for total growth inhibition (TGI) turned out to be 71.4 µM in [1]; 94.5 µM in [2]; 63.6 µM in assay [3]; 45.6 µM in assay [4]; 51.8 µM in assay [5]; 30.9 µM in [6]. Further, the TGI was found to be 32.9 µM in [7], 79.8 µM in assay [8] and 35.9 µM in [9].

The term GI50 denotes the concentration at which growth is held to half of that of the control. The TGI is the concentration at which net growth stops. Read a high TGI as less potent growth arrest.
